Publication PMC5877965 (Proceedings of the National Academy of Sciences of the …, 2018)

Experiments:
[1] = target: all five receptor subtypes; details: cited from earlier work
human M2 mAChR = human M2 mAChR (Homo sapiens, UniProt P08172); type: binding
Sequence of human M2 mAChR (P08172 whole entry): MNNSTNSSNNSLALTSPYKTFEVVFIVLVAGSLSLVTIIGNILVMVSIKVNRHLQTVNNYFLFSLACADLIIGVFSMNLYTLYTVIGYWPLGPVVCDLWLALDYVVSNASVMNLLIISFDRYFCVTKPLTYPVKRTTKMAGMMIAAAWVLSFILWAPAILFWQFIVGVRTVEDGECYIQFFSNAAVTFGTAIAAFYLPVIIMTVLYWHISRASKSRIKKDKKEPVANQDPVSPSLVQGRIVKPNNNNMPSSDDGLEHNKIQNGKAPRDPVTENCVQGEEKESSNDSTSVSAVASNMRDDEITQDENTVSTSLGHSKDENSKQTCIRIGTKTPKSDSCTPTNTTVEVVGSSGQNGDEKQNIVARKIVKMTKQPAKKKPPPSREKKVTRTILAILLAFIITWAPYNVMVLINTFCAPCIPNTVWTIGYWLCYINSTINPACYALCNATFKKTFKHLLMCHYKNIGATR

| SMILES | Kd [1] | allosteric effect on [3H]NMS binding (in words) (human M2 mAChR) |
| --- | --- | --- |
| CN1[C@@H]2C[C@@H](OC(=O)[C@H](CO)c3ccccc3)C[C@H]1[C@@H]1O[C@@H]12 [scopolamine] | 0.4 to 2.1 nM | – |
| CC[N+](CC)(CC)CCOc1cccc(OCC[N+](CC)(CC)CC)c1OCC[N+](CC)(CC)CC [Gallamine, gallamine] | – | substantially reduced the specific binding |
| COc1nc2sc(C(=O)NC3CC3)c(N)c2c(C)c1Cl [LY2033298] | – | small NAM effect |
